In the NIST ThermoML archive (doi:10.1021/je800732f):
± gives the expanded uncertainty stated by the source.

Assay: cn = amount concentration of the nth substance listed, in mol/dm3
Conditions: 101 kPa, Liquid; for viscosity: Concentric cylinders viscometry, c1 = 0.025; for mass density: Vibrating tube method

| viscosity (293.15 K) [mPa·s] | viscosity (298.15 K) [mPa·s] | viscosity (303.15 K) [mPa·s] | mass density (298.15 K, c1 = 0.2091) [kg/m3] | mass density (298.15 K, c1 = 0.5066) [kg/m3] | mass density (298.15 K, c1 = 1.013) [kg/m3] | mass density (298.15 K, c1 = 1.503) [kg/m3] | mass density (298.15 K, c1 = 1.974) [kg/m3] | mass density (298.15 K, c1 = 2.45) [kg/m3] | Compound |
| --- | --- | --- | --- | --- | --- | --- | --- | --- | --- |
| 1.019 ± 0.0071 | 0.9026 ± 0.0067 | 0.8068 ± 0.0064 | – | – | – | – | – | – | NCC(=O)NCC(=O)O [glycylglycine] + O |
| – | – | – | 1005.46 ± 0.056 | 1015.26 ± 0.065 | 1034.19 ± 0.085 | 1049.73 ± 0.11 | 1074.45 ± 0.15 | 1088.01 ± 0.19 | [Cl-].[Na+] [sodium chloride] + O |
